Data set [1] is described as follows: Dynamic Precipitation Model (absorbance at 500 nm on infusion into blood surrogate). It is filed as physicochemical. As for the experimental part: Dynamic Precipitation Model. The dynamic precipitation apparatus is shown in FIG. 1, and is also described in Johnson et al., (2003). The apparatus includes a predetermined distance, illustratively a 15 cm distance, between the tip of the injection needle and the UV flow cell, and three main components to simulate blood flow and different infusion rates of drug. Illustratively, a Cole-Palmer-Masterflex® 7520-00 peristaltic pump is used to direct the flow of blood surrogate at 5 mL/min. Illustratively, a Harvard Apparatus Precision Syringe Pump 22 is used to infuse drug formulations into the system at various injection rates. Illustratively, a Cary UV-50 Bio Spectrophotometer with a 1.00 cm flow cell is used to monitor absorbance as a measure of precipitation in the formulation-blood surrogate system. Each sample is prepared by dissolving test compound and formulation agents into water or vehicle, and adjusting the pH with either 1 M HCl or 1 M NaOH, as appropriate to the indicated final concentration of test compound. Lactic, citric, and tartaric acid formulation agent stock solutions are made by dissolving the predetermined weight of solid or liquid into water and adjusting pH with either 1 M HCl or 1 M NaOH. The blood surrogate (Isotonic Sorensen's Phosphate Buffer, 0.067 M, pH 7.4) is pumped from a reservoir through Tygon® tubing (R-6306) fitted with 2 IV-set Y-injection sites that pass into the flow cell and terminate in a waste container. […]-35 flow meter, along with a timer and graduated cylinder, is used to measure the rate of surrogate blood flow through the system. Illustratively, flow is 5 mL/min. The test compound formulations are infused at different rates through the downstream second Y-injection site into the flow of the blood surrogate entering into the flow cell. A 0.001 M HCl solution is injected into the first Y-injection site following each infusion of test compound to flush the downstream tubing and flow cell. All injections are performed at 25° C. The spectrophotometer software (Cary UVWin) is set to read a constant absorbance, illustratively 500 nm, versus time. Samples are made with buffer and drug concentrations as described. After the flow rate is confirmed at 5 mL/min, the spectrophotometer is set to record absorbance at 500 nm for 5-10 minutes, and injections are performed at different rates as specified. To prevent any residual precipitation build up in the tubing or flow cell, a flush of pH 3 HCl is performed between injections. The flow cell is optionally visually inspected between runs for the presence of precipitation. Static precipitation measurements are also optionally performed by a two-fold serial dilution of test compound formulation in blood surrogate using a laser pointer as a Tyndall beam to determine the presence of particulates. […] An absorbance at or above 0.05 is considered to be the threshold level for assessing precipitation having phlebitic potential.

The test system of data set [2] is New Zealand White female rabbits. The data set is described as follows: Pain Tolerance Evaluation, Single Dose Rabbit Ear Vein Model Study. It is filed as in vivo. As to conditions: single dose infusions in marginal ear vein, observed during and 30 minutes post infusion. The procedure:
Pain Tolerance Evaluation Following Intravenous Infusion in Rabbit. Single Dose Rabbit Ear Vein Model Study. New Zealand White female rabbits weighing 2.5-3.2 kg are evaluated for pain, ear inflammation and phlebitis after intravenous infusion of test compound. Commercial azithromycin citrate is used as a positive control.
CEM-101 lyo (SOL (250.0 mg), mannitol, USP (250.0 mg), L(+)-tartaric acid, USP (29.0 mg), sodium hydroxide, NF (for pH adjustment to pH 4.2)) is reconstituted in a vehicle or formulation as described herein. The placebo is the same formulation without SOL. The reconstituted SOL or placebo is dissolved in an appropriate vehicles, such as 0.45% saline, 0.5% lactic acid at pH 4 in 0.45% saline, 0.5% lactic acid with 10 mM tartaric acid at pH 4 in 0.45% saline. CEM-101 lyo is dissolved in the appropriate vehicle at concentrations of 2 mg/mL or 3 mg/mL. The CEM-101 placebo formulation is dissolved in 0.45% saline. All rabbits are weighed to calculate dosing volumes.
Azithromycin lyophilized vials are commercially available azithromycin citrate for injection (ZITHROMAX IV) in lyophilized form in a 10-mL vial equivalent to 500 mg of azithromycin for intravenous administration. […]
Animals were observed during and post (30 minutes) each infusion, and reactions were scored according to a modified Draize Score and recorded. […]

The record followed here is patent US10188674B2, “Parenteral formulations for administering macrolide antibiotics” (Cempra Pharmaceuticals, Inc., priority 2012, dated 2019).

As for “Azithromycin Citrate [Azitromycin citrate, reference compound]”, in data set [1] (2 mg/mL, 4 mL/min, 0.45% NaCl), the Absorbance result is “++++ ((++++) = BQL of <0.003)”. Moreover, the precipitation result in data set [1] (citrate buffered solution in 0.45% saline at 2 mg/mL and 4 mL/min) was “does not exhibit precipitation and BQL”. Further, the “reactions upon test article administration” value in data set [2] was “strong movement of ear, head and body with vocalization”.
